Tests used:
wild oat = experiment: Test B pre/postemergence wild oat; format: in vivo, Avena fatua
Summary of the method: (§1)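 Herbicidal effect was estimated by eye on a ten-point control scale after plants spent twelve to sixteen days in a greenhouse following soil or foliar treatment. Foliar sprays targeted plants at one to four leaves; all doses were formulated in a non-phytotoxic solvent with surfactant.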

wheat = experiment: Test B pre/postemergence wheat; format: in vivo, Triticum aestivum
Summary of the method: as §1

cocklebur = experiment: Test B pre/postemergence cocklebur; format: in vivo, Xanthium strumarium
Summary of the method: as §1

crabgrass = experiment: Test B pre/postemergence crabgrass; format: in vivo, Digitaria sanguinalis
Summary of the method: as §1

[1] = Postemergence, Rate 250 g/ha, scale 0 to 10
[2] = Preemergence, Rate 62 g/ha, scale of 0 to 10 where 0 is no effect and 10 is complete control
[3] = Preemergence, Rate 125 g/ha, scale of 0 to 10 where 0 is no effect and 10 is complete control
[4] = Preemergence, Rate 250 g/ha, scale 0 to 10, 0 is no effect, 10 is complete control
[5] = Preemergence, Rate 500 g/ha, scale 0 to 10, 0 is no effect, 10 is complete control
[6] = Rate 62 g/ha, Postemergence, scale 0 to 10, 0 no effect, 10 complete control
[7] = Rate 125 g/ha, Postemergence, scale 0 to 10, 0 is no effect, 10 is complete control
[8] = Postemergence, Rate 500 g/ha, scale of 0 to 10 where 0 is no effect and 10 is complete control
[9] = Postemergence, Rate 125 g/ha, scale 0 to 10, 0 is no effect, 10 is complete control
[10] = Preemergence, Rate 125 g/ha, scale 0 to 10, 0 is no effect, 10 is complete control
[11] = Postemergence, Rate 31 g/ha, visual rating, scale 0 to 10 (0 no effect, 10 complete control)
[12] = Preemergence, Rate 31 g/ha, visual rating, scale 0 to 10 (0 no effect, 10 complete control)
[13] = Postemergence, Rate 62 g/ha, scale 0 to 10, 0 is no effect, 10 is complete control
[14] = Postemergence, Rate 125 g/ha, scale of 0 to 10 where 0 is no effect and 10 is complete control
[15] = Postemergence, Rate 250 g/ha, scale of 0 to 10, 0 is no effect, 10 is complete control
[16] = Preemergence, Rate 62 g/ha, scale 0 to 10 (0 no effect, 10 complete control)
[17] = Preemergence, Rate 250 g/ha, scale 0 to 10 (0 no effect, 10 complete control)
[18] = Preemergence, Rate 500 g/ha, scale of 0 to 10 where 0 is no effect and 10 is complete control

CC(C)N(C(=O)n1oc(=O)n(C(C)CCl)c1=O)c1ccc(Cl)cc1 (stereo not drawn) [Compound 456]
7: Crabgrass plant response rating (crabgrass; [8])
2: Wild oats plant response rating (wild oat; [4]) | Cocklebur plant response rating (cocklebur; [8])
8: Crabgrass plant response rating (crabgrass; [4])
6: Plant response rating, Crabgrass (crabgrass; [2]) | Plant response rating, Crabgrass (crabgrass; [3])
4: Crabgrass plant response rating (crabgrass; [1]) | Crabgrass plant response rating (crabgrass; [6])
9: Crabgrass plant response rating (crabgrass; [5])
0: Wild oats plant response rating (wild oat; [1]) | Plant response rating, Wild oats (wild oat; [2]) | Plant response rating, Wild oats (wild oat; [3]) | Wild oats plant response rating (wild oat; [6]) | Wild oats plant response rating (wild oat; [7]) | Wheat plant response rating (wheat; [1]) | Plant response rating, Wheat (wheat; [2]) | Plant response rating, Wheat (wheat; [3]) | Wheat plant response rating (wheat; [4]) | Wheat plant response rating (wheat; [5]) | Wheat plant response rating (wheat; [6]) | Wheat plant response rating (wheat; [7]) | Cocklebur plant response rating (cocklebur; [1]) | Plant response rating, Cocklebur (cocklebur; [2]) | Plant response rating, Cocklebur (cocklebur; [3]) | Cocklebur plant response rating (cocklebur; [4]) | Cocklebur plant response rating (cocklebur; [5]) | Cocklebur plant response rating (cocklebur; [6]) | Cocklebur plant response rating (cocklebur; [7])
3: Wild oats plant response rating (wild oat; [5])

CC(C)N(C(=O)n1oc(=O)n(CC#N)c1=O)c1ccc(Cl)cc1 [Compound 476]
0: Wild oats plant response rating (wild oat; [1]) | Plant response rating, Wild oats (wild oat; [2]) | Plant response rating, Wild oats (wild oat; [3]) | Wild oats plant response rating (wild oat; [4]) | Wild oats plant response rating (wild oat; [5]) | Wild oats plant response rating (wild oat; [6]) | Wild oats plant response rating (wild oat; [7]) | Wheat plant response rating (wheat; [1]) | Plant response rating, Wheat (wheat; [2]) | Plant response rating, Wheat (wheat; [3]) | Wheat plant response rating (wheat; [4]) | Wheat plant response rating (wheat; [5]) | Wheat plant response rating (wheat; [6]) | Wheat plant response rating (wheat; [7]) | Cocklebur plant response rating (cocklebur; [1]) | Cocklebur plant response rating (cocklebur; [8]) | Plant response rating, Cocklebur (cocklebur; [2]) | Plant response rating, Cocklebur (cocklebur; [3]) | Cocklebur plant response rating (cocklebur; [4]) | Cocklebur plant response rating (cocklebur; [5]) | Cocklebur plant response rating (cocklebur; [6]) | Cocklebur plant response rating (cocklebur; [7]) | Crabgrass plant response rating (crabgrass; [1]) | Crabgrass plant response rating (crabgrass; [8]) | Plant response rating, Crabgrass (crabgrass; [2]) | Plant response rating, Crabgrass (crabgrass; [3]) | Crabgrass plant response rating (crabgrass; [4]) | Crabgrass plant response rating (crabgrass; [5]) | Crabgrass plant response rating (crabgrass; [6]) | Crabgrass plant response rating (crabgrass; [7])

CC(C)N(C(=O)n1oc(=O)n(Cc2cnc(Cl)s2)c1=O)c1ccc(F)cc1 [Compound 482]
8: Crabgrass plant response rating (crabgrass; [10]) | Crabgrass plant response rating (crabgrass; [4]) | Crabgrass plant response rating (crabgrass; [5])
3: Wild oats plant response rating (wild oat; [5]) | Crabgrass plant response rating (crabgrass; [8]) | Plant response rating, Crabgrass (crabgrass; [2])
1: Crabgrass plant response rating (crabgrass; [1])
0: Wild oats plant response rating (wild oat; [9]) | Wild oats plant response rating (wild oat; [1]) | Plant response rating, Wild oats (wild oat; [2]) | Wild oats plant response rating (wild oat; [10]) | Wild oats plant response rating (wild oat; [4]) | Wild oats plant response rating (wild oat; [6]) | Wheat plant response rating (wheat; [9]) | Wheat plant response rating (wheat; [1]) | Plant response rating, Wheat (wheat; [2]) | Wheat plant response rating (wheat; [10]) | Wheat plant response rating (wheat; [4]) | Wheat plant response rating (wheat; [5]) | Wheat plant response rating (wheat; [6]) | Cocklebur plant response rating (cocklebur; [9]) | Cocklebur plant response rating (cocklebur; [1]) | Cocklebur plant response rating (cocklebur; [8]) | Plant response rating, Cocklebur (cocklebur; [2]) | Cocklebur plant response rating (cocklebur; [10]) | Cocklebur plant response rating (cocklebur; [4]) | Cocklebur plant response rating (cocklebur; [5]) | Cocklebur plant response rating (cocklebur; [6]) | Crabgrass plant response rating (crabgrass; [9]) | Crabgrass plant response rating (crabgrass; [6])

CC(C)N(C(=O)n1oc(=O)n(CC[N+](=O)[O-])c1=O)c1ccc(Cl)cc1 [Compound 483]
0: Wild oats plant response rating (wild oat; [11]) | Wild oats plant response rating (wild oat; [9]) | Wild oats plant response rating (wild oat; [1]) | Plant response rating, Wild oats (wild oat; [2]) | Wild oats plant response rating (wild oat; [10]) | Wild oats plant response rating (wild oat; [4]) | Wild oats plant response rating (wild oat; [6]) | Wheat plant response rating (wheat; [11]) | Wheat plant response rating (wheat; [9]) | Wheat plant response rating (wheat; [1]) | Plant response rating, Wheat (wheat; [2]) | Wheat plant response rating (wheat; [10]) | Wheat plant response rating (wheat; [4]) | Wheat plant response rating (wheat; [6]) | Cocklebur plant response rating (cocklebur; [11]) | Cocklebur plant response rating (cocklebur; [9]) | Cocklebur plant response rating (cocklebur; [1]) | Cocklebur plant response rating (cocklebur; [12]) | Plant response rating, Cocklebur (cocklebur; [2]) | Cocklebur plant response rating (cocklebur; [10]) | Cocklebur plant response rating (cocklebur; [4]) | Cocklebur plant response rating (cocklebur; [6]) | Crabgrass plant response rating (crabgrass; [11]) | Crabgrass plant response rating (crabgrass; [9]) | Crabgrass plant response rating (crabgrass; [1]) | Crabgrass plant response rating (crabgrass; [12]) | Plant response rating, Crabgrass (crabgrass; [2]) | Crabgrass plant response rating (crabgrass; [10]) | Crabgrass plant response rating (crabgrass; [4]) | Crabgrass plant response rating (crabgrass; [6])

CC(C)N(C(=O)n1oc(=O)n(CNC(=O)c2ccccc2)c1=O)c1ccc(F)cc1F [Compound 619]
2: Plant response rating, Crabgrass (crabgrass; [8])
1: Crabgrass plant response rating (crabgrass; [3])
0: Plant response rating, Wild oats (wild oat; [13]) | Plant response rating, Wild oats (wild oat; [14]) | Wild oats plant response rating (wild oat; [15]) | Wild oats plant response rating (wild oat; [16]) | Wild oats plant response rating (wild oat; [3]) | Plant response rating, Wild oats (wild oat; [17]) | Plant response rating, Wild oats (wild oat; [18]) | Plant response rating, Wheat (wheat; [13]) | Plant response rating, Wheat (wheat; [14]) | Wheat plant response rating (wheat; [15]) | Wheat plant response rating (wheat; [16]) | Wheat plant response rating (wheat; [3]) | Plant response rating, Wheat (wheat; [17]) | Plant response rating, Wheat (wheat; [18]) | Plant response rating, Cocklebur (cocklebur; [13]) | Plant response rating, Cocklebur (cocklebur; [14]) | Cocklebur plant response rating (cocklebur; [15]) | Plant response rating, Cocklebur (cocklebur; [8]) | Cocklebur plant response rating (cocklebur; [16]) | Cocklebur plant response rating (cocklebur; [3]) | Plant response rating, Cocklebur (cocklebur; [17]) | Plant response rating, Cocklebur (cocklebur; [18]) | Plant response rating, Crabgrass (crabgrass; [13]) | Plant response rating, Crabgrass (crabgrass; [14]) | Crabgrass plant response rating (crabgrass; [15]) | Crabgrass plant response rating (crabgrass; [16])
6: Plant response rating, Crabgrass (crabgrass; [17])
8: Plant response rating, Crabgrass (crabgrass; [18])

CC(=O)NCn1c(=O)on(C(=O)N(c2ccccc2)C(C)C)c1=O [Compound 621]
6: Crabgrass plant response rating (crabgrass; [3])
5: Crabgrass plant response rating (crabgrass; [16])
7: Plant response rating, Crabgrass (crabgrass; [17])
8: Plant response rating, Crabgrass (crabgrass; [18])
3: Plant response rating, Crabgrass (crabgrass; [14])
0: Plant response rating, Wild oats (wild oat; [13]) | Plant response rating, Wild oats (wild oat; [14]) | Wild oats plant response rating (wild oat; [15]) | Wild oats plant response rating (wild oat; [16]) | Wild oats plant response rating (wild oat; [3]) | Plant response rating, Wild oats (wild oat; [17]) | Plant response rating, Wild oats (wild oat; [18]) | Plant response rating, Wheat (wheat; [13]) | Plant response rating, Wheat (wheat; [14]) | Wheat plant response rating (wheat; [15]) | Wheat plant response rating (wheat; [16]) | Wheat plant response rating (wheat; [3]) | Plant response rating, Wheat (wheat; [17]) | Plant response rating, Wheat (wheat; [18]) | Plant response rating, Cocklebur (cocklebur; [13]) | Plant response rating, Cocklebur (cocklebur; [14]) | Cocklebur plant response rating (cocklebur; [15]) | Plant response rating, Cocklebur (cocklebur; [8]) | Cocklebur plant response rating (cocklebur; [16]) | Cocklebur plant response rating (cocklebur; [3]) | Plant response rating, Cocklebur (cocklebur; [17]) | Plant response rating, Cocklebur (cocklebur; [18]) | Plant response rating, Crabgrass (crabgrass; [13])

CC(=O)N(C)CCn1c(=O)on(C(=O)N(c2ccc(F)cc2)C(C)C)c1=O [Compound 625]
3: Plant response rating, Wild oats (wild oat; [17]) | Plant response rating, Wheat (wheat; [18])
5: Plant response rating, Wild oats (wild oat; [18])
10: Plant response rating, Crabgrass (crabgrass; [18])
7: Crabgrass plant response rating (crabgrass; [3])
8: Plant response rating, Crabgrass (crabgrass; [8]) | Plant response rating, Crabgrass (crabgrass; [17])
4: Crabgrass plant response rating (crabgrass; [15])
0: Plant response rating, Wild oats (wild oat; [13]) | Plant response rating, Wild oats (wild oat; [14]) | Wild oats plant response rating (wild oat; [15]) | Wild oats plant response rating (wild oat; [16]) | Wild oats plant response rating (wild oat; [3]) | Plant response rating, Wheat (wheat; [13]) | Plant response rating, Wheat (wheat; [14]) | Wheat plant response rating (wheat; [15]) | Wheat plant response rating (wheat; [16]) | Wheat plant response rating (wheat; [3]) | Plant response rating, Wheat (wheat; [17]) | Plant response rating, Cocklebur (cocklebur; [13]) | Plant response rating, Cocklebur (cocklebur; [14]) | Cocklebur plant response rating (cocklebur; [15]) | Plant response rating, Cocklebur (cocklebur; [8]) | Cocklebur plant response rating (cocklebur; [16]) | Cocklebur plant response rating (cocklebur; [3]) | Plant response rating, Cocklebur (cocklebur; [17]) | Plant response rating, Cocklebur (cocklebur; [18]) | Plant response rating, Crabgrass (crabgrass; [14])
1: Plant response rating, Crabgrass (crabgrass; [13])
2: Crabgrass plant response rating (crabgrass; [16])
